Laboratory results reported in publication PMC7531004, “Discovery of gramicidin A analogues with altered activities by multidimensional screening of a one-bead-one-compound library” (Nature Communications, 2020).
Where a SMILES comes first, the peptide text is derived from it. [ ]: non-standard residue; d: D form. The star is where a group is joined. NHCH2CH2OH = OCCN*; For = O=C*

How the values were obtained:
[1] = tested on: Streptococcus pyogenes SSI-9; assay: Antibacterial activity assay of bead-derived peptides (three concentrations); format: cell-based; parameters: key: +++: inhibition by the 640-fold diluted peptide solution; ++: inhibition by the 160-fold diluted solution; +: inhibition by the 40-fold diluted solution; -: no inhibition; settings: S. pyogenes, bead-derived peptide solution, three concentrations
In short: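 Three stock dilutions per peptide (none, 4-fold, 16-fold in DMSO) are screened in 96-well format. The medium is blood-supplemented cation-adjusted MHB, inoculated with 2 × 10^5 CFU S. pyogenes SSI-9. Growth is read as cell precipitation at 18 h, 37 °C.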

[2] = tested on: P388 mouse leukemia cells; settings: 92 h
In short: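 First, library peptide stocks are diluted 250-fold in RPMI1640 with 10% heat-inactivated FBS. Next, they are mixed with P388 cells to give 1 × 10^4 cells/mL and incubated 92 h at 37 °C, 5% CO2. Finally, viability (%) is scored by WST-1 absorbance at 415 nm.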

[3] = H+/Na+ transport assay of bead-derived peptides (one-point); format: biochemical; parameters: key: relative activity; mean of two control wells = 1.00; settings: bead-derived peptide solution, EYPC/EYPG LUVs;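 note: relative to parent gramicidin A activity set to 1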
In short: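 One-point screen: peptide + pyranine-loaded LUVs, 30 min RT with vortexing, 96-well. Read-out is fluorescence intensity scaled as 100 × (Ix – I0)/(Imax – I0). Imax from Triton X-100, I0 from untreated vesicles, and the mean of the two control wells is set to 1.00.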

SMILES	antibacterial activity [1]	cell viability/% [2]	H+/Na+ transport activity normalized against the value of 1 (1.00) [3]
CNC(=O)C[C@@H](NC(=O)[C@H](Cc1c[nH]c2ccccc12)NC(=O)[C@@H](CC(C)C)NC(=O)[C@H](Cc1c[nH]c2ccccc12)NC(=O)[C@@H](CC(C)C)NC(=O)[C@H](Cc1c[nH]c2ccccc12)NC(=O)[C@H](NC(=O)[C@@H](NC(=O)[C@H](NC(=O)[C@H](C)NC(=O)[C@@H](CC(C)C)NC(=O)[C@H](C)NC(=O)CNC(=O)[C@@H](NC=O)C(C)C)C(C)C)C(C)C)C(C)C)C(=O)N[C@@H](Cc1c[nH]c2ccccc12)C(=O)NCCO [compound 2020] (For-VGA[dL]A[dV]V[dV]W[dL]W[dL]W[dD](NHMe)W-NHCH2CH2OH)	-	100.0%	1.02
CC(C)C[C@@H](NC(=O)[C@H](C)NC(=O)CNC(=O)[C@@H](NC=O)C(C)C)C(=O)N[C@@H](C)C(=O)N[C@@H](C(=O)N[C@H](C(=O)N[C@@H](C(=O)N[C@@H](Cc1c[nH]c2ccccc12)C(=O)N[C@@H](C(=O)N[C@@H](Cc1c[nH]c2ccccc12)C(=O)N[C@H](CC(C)C)C(=O)N[C@@H](Cc1c[nH]c2ccccc12)C(=O)N[C@H](CC(C)C)C(=O)N[C@@H](Cc1c[nH]c2ccccc12)C(=O)NCCO)C(C)C)C(C)C)C(C)C)C(C)C [compound 2082] (For-VGA[dL]A[dV]V[dV]W[dV]W[dL]W[dL]W-NHCH2CH2OH)	+	100.0%	1.16
CC(C)C[C@@H](NC(=O)[C@H](Cc1c[nH]c2ccccc12)NC(=O)[C@H](NC(=O)[C@H](Cc1c[nH]c2ccccc12)NC(=O)[C@@H](CC(C)C)NC(=O)[C@@H](NC(=O)[C@H](NC(=O)[C@H](C)NC(=O)[C@H](NC(=O)[C@H](C)NC(=O)CNC(=O)[C@@H](NC=O)C(C)C)C(C)C)C(C)C)C(C)C)C(C)C)C(=O)N[C@@H](Cc1c[nH]c2ccccc12)C(=O)N[C@@H](C(=O)N[C@@H](Cc1c[nH]c2ccccc12)C(=O)NCCO)C(C)C [compound 2120] (For-VGA[dV]A[dV]V[dL]W[dV]W[dL]W[dV]W-NHCH2CH2OH)	++	17.0%	1.24
CC(C)C[C@@H](NC(=O)[C@H](C)NC(=O)CNC(=O)[C@@H](NC=O)C(C)C)C(=O)N[C@@H](C)C(=O)N[C@H](CC(C)C)C(=O)N[C@H](C(=O)N[C@@H](C(=O)N[C@@H](Cc1c[nH]c2ccccc12)C(=O)N[C@@H](C(=O)N[C@@H](Cc1c[nH]c2ccccc12)C(=O)N[C@H](CC(C)C)C(=O)N[C@@H](Cc1c[nH]c2ccccc12)C(=O)N[C@H](CC(C)C)C(=O)N[C@@H](Cc1c[nH]c2ccccc12)C(=O)NCCO)C(C)C)[C@H](C)O)C(C)C [compound 2158] (For-VGA[dL]A[dL]V[dT]W[dV]W[dL]W[dL]W-NHCH2CH2OH)	-	100.0%	1.18
CC(C)C[C@@H](NC(=O)[C@H](C)NC(=O)CNC(=O)[C@@H](NC=O)C(C)C)C(=O)N[C@@H](C)C(=O)N[C@@H](C(=O)N[C@H](C(=O)N[C@@H](C(=O)N[C@@H](Cc1c[nH]c2ccccc12)C(=O)N[C@H](CC(C)C)C(=O)N[C@@H](Cc1c[nH]c2ccccc12)C(=O)N[C@H](CC(C)C)C(=O)N[C@@H](Cc1c[nH]c2ccccc12)C(=O)N[C@H](CC(C)C)C(=O)N[C@@H](Cc1c[nH]c2ccccc12)C(=O)NCCO)[C@H](C)O)C(C)C)C(C)C [compound 2172] (For-VGA[dL]A[dV]V[dT]W[dL]W[dL]W[dL]W-NHCH2CH2OH)	+	100.0%	1.22
